The values below are quoted from earlier work in article PMC6010143, “Synthesis of new pyridothienopyrimidinone derivatives as Pim-1 inhibitors” (Journal of Enzyme Inhibition and Medicinal Chemistry, 2017).

Common to all, as to conditions: cited from earlier work
Data set [1] addresses pim-2.
For data set [2], the target named is pim-1.
Data set [3] deals with pim-3.

Structures are written as SMILES. Read-outs that look alike come from different tables or passages of the source.

For `NC1CCN(c2ccncc2NC(=O)c2ccc(F)c(-c3c(F)cccc3F)n2)CC1O` (centres unmarked) [LGB321], the inhibition constant (Ki) (commonly a measure of affinity in units of concentration, obtained from inhibition or displacement) in data set [1] (Figure 1) was 0.0021 nM; in data set [2] (Figure 1), 0.001 nM.
Regarding `CC(C)(O)[C@H]1CC[C@H](Nc2ccc3ncc(-c4cccc(C(F)(F)F)c4)n3n2)CC1` [SGI-9481], the Ki in data set [3] (Figure 1) was 42 nM; in data set [1] (Figure 1), 239 nM; in data set [2] (Figure 1), 5 nM.
In the case of `O=c1[nH]c(CNc2cccc(O)c2)nc2c1sc1ccc(Br)cc12` [VII], the results for the inhibition constant Ki in data set [3] (Figure 3), in data set [1] (Figure 3) and in data set [2] (Figure 3) were 4 nM, 60 nM and 0.8 nM, respectively.
As for `CN(C)Cc1nc2c(sc3ccc(-c4ccc(O)cc4)cc32)c(=O)[nH]1` [VI], the Ki in data set [3] (Figure 3) was 0.5 nM; in data set [1] (Figure 3), 3 nM; in data set [2] (Figure 3), 2 nM.
